Assay results from patent publication US11045519B2, “Arginine-rich polypeptide compositions and methods of using same” (UNM Rainforest Innovations, priority 2017, dated 2021).

Tests used:
[1] = tested on: HPV16 PsVs; experiment: Internalization of cell-bound HPV16 PsV into HaCaT cells (L1 immunoblot); format: cell-based; conditions: HPV-bound HaCaT cells incubated 4 h
Protocol: FIG. 8. PolyR reduces the internalization of cell membrane-bound HPV16 PsV. HaCaT cells were incubated with HPV16 PsVs for one hour at 4° C. Unbound virus was removed from the cells by incubation with 0.25% trypsin/5 mM EDTA for 15 minutes at 37° C. Cells were pelleted and washed several times with CM (to neutralize pH) and with ice-cold PBS before adding ice-cold 0.1 M sodium acetate buffer (pH 4.5) containing 0.5 M NaCl. After a two-minute incubation on ice, cells were washed three times with PBS and lysed with RIPA [50 mM Tris (pH 7.5), 0.1% SDS, 1% sodium deoxycholate, 150 mM NaCl, 1 mM EDTA, 1% Triton X-100, 1 mM sodium vanadate, 1 mM PMSF, 10 ng/ml leupeptin, 10 ng/ml aprotinin] buffer. Immuno-blotting was performed, and the L1 protein was detected using a HPV16 L1-specific mAb (Camvir-1, sc-47699, Santa Cruz Biotechnology, Inc., Dallas, Tex.).
To investigate the effect of polyR on the penetration of cell-bound virus into host cells, HPV-bound cells were incubated for four hours in the absence or presence of polyR. […] Immuno-blotting was performed, and the L1 protein was detected using a HPV16 L1 specific mAb (Camvir-1; Santa Cruz Biotechnology, Inc., Dallas, Tex.). As HPV16 L1 is proteolytically processed during cell entry, two forms of L1 (full-length 55 kDa and the 25 kDa processed form) were detected. […]

[2] = tested on: HPV16 PsVs; experiment: HPV16 PsV infection of CHO mutant cells; format: cell-based; conditions: 3 μM, 1 h pre-treatment, 24 h
Protocol: FIG. 7. HPV binding and infection of CHO mutant cells in the presence of polyR. CHO mutant pgsA-745 cells (GAG deficient) and CHO mutant pgsD-677 cells (HS deficient) were grown in Ham's F12 medium supplemented with 10% fetal bovine serum and 1% Glutamax (Invitrogen, Thermo Fisher Scientific, Inc., Carlsbad, Calif.). (A) Cells were incubated with 3 μM polyR in the medium for 30 minutes before adding HPV16 PsVs and incubating at 4° C. for one hour. After extensive washing with PBS, cells were lysed and analyzed for the content of L1, as described in FIG. 4A. (B) Semi-confluent CHO-pgsA were treated with 3 μM polyR for one hour prior to adding HPV16 PsVs. Infection was scored at 24 hours post infection as described in FIG. 1. (C) Semi-confluent CHO-pgsD cells were treated with 3 μM polyR for one hour prior to adding HPV16 PsVs. Infection was scored at 24 hours post infection as described in FIG. 1.
To test the effects of polyR on cells that differentially express heparan sulfate versus heparan sulfonated proteoglycans, like glycosaminoglycans (GAGs), genetically mutant clones of Chinese hamster ovary (CHO) cell lines were used. […] First, the effect of polyR on HPV16 PsV binding to these mutant cells was measured.

poly-L-arginine [polyR]
internalized L1 forms (55 kDa full-length, 25 kDa processed) [1]: decreased levels of 55 kDa L1 protein and increased amounts of the 25 kDa proteolytic processed L1 form | virus internalization rate (sum of IDVs of 55 kDa and 25 kDa L1 bands) [1]: had no effect on the virus internalization rate | reduction of HPV16 infection ([2]; CHO pgsA-745 cells): 63% | reduction of HPV16 infection ([2]; CHO pgsD-677 cells): 92%
